Molecular target: α-Glucosidase from Saccharomyces cerevisiae (Saccharomyces cerevisiae, UniProt P53341)
Experiment: In vitro α-glucosidase inhibition study
Settings: for inhibition at 25 µM: pH 6.8, read-out: Inhibition at 25 μM (%); for IC50: IC50, μM, average value ± standard deviation, p-nitrophenyl α-D-glucoside substrate, pH 6.8, 37 °C

Sequence of α-Glucosidase from Saccharomyces cerevisiae (P53341 whole entry): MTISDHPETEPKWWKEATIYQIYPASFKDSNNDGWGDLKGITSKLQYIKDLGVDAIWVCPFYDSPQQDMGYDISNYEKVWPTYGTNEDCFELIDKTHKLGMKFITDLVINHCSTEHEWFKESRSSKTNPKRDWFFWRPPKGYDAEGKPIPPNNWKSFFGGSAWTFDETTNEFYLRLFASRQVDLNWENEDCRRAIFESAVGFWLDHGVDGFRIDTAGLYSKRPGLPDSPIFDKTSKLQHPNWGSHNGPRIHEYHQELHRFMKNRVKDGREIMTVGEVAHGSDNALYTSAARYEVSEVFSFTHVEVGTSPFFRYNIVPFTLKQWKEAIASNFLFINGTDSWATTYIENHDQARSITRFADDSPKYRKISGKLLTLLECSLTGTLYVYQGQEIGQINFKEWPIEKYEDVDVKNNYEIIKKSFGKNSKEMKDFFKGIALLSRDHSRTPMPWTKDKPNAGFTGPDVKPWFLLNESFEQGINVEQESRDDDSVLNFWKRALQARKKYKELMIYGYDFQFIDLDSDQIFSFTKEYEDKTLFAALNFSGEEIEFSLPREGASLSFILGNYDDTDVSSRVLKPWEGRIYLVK

Compound | inhibition at 25 µM | IC50
O=c1c(-c2ccc(O)cc2)coc2c(Cn3ccnc3)c(O)ccc12 [Compound 9d] | 42% | 27 ± 0.2 µM
COc1ccc(-c2c(C)oc3c(Cn4cnc5ccccc54)c(O)ccc3c2=O)cc1 [Compound 10f] | 48.6% | 25.5 ± 7.9 µM
O=c1c(-c2ccc(OC(F)(F)F)cc2)coc2c(Cn3cnc4ccccc43)c(O)ccc12 [Compound 10h] | 99.1% | 9.5 ± 1.6 µM
Cc1cc(C)n(Cc2c(O)ccc3c(=O)c(-c4ccc(O)cc4)coc23)n1 [Compound 12c] | 42.8% | 27.4 ± 1.9 µM
COc1ccc(-c2coc3c(Cn4ncc5ccccc54)c(O)ccc3c2=O)cc1 [Compound 13b] | 73% | 17.1 ± 2.8 µM

More lines, now with the values ahead:

inhibition at 25 µM | IC50 | Compound
39% | – | O=c1c(-c2ccc(OC(F)(F)F)cc2)coc2cc(O)ccc12 [Compound 6j, 7-hydroxy-4′-trifluoromethoxyisoflavone]
53.4% | 23.6 ± 1.8 µM | Cc1cc(=O)oc2c(Cn3ccnc3)c(O)ccc12 [Compound 9b]
69.3% | 21.1 ± 0.7 µM | Cc1cc(=O)oc2c(Cn3cnc4ccccc43)c(O)ccc12 [Compound 10b]
64.6% | 20.6 ± 2.1 µM | COc1ccc(-c2coc3c(Cn4cnc5ccccc54)c(O)ccc3c2=O)cc1 [Compound 10d]
84.1% | 14.3 ± 2 µM | O=c1c(-c2ccc(OC(F)(F)F)cc2)coc2c(Cn3cccn3)c(O)ccc12 [Compound 11j]
67.3% | 20.9 ± 2.5 µM | COc1ccc(-c2coc3c(Cn4nc(C)cc4C)c(O)ccc3c2=O)cc1 [Compound 12d]
94% | 5.8 ± 0.2 µM | Cc1cc(C)n(Cc2c(O)ccc3c(=O)c(-c4ccc(OC(F)(F)F)cc4)coc23)n1 [Compound 12i]
50.3% | 23.9 ± 2.3 µM | COc1ccc(-c2coc3c(Cn4cc5ccccc5n4)c(O)ccc3c2=O)cc1 [Compound 14b]

From PMC11367390 (RSC Advances, 2024)
